Test results from patent publication US4309342A, “Antibacterial peptides” (Abbott Laboratories, priority 1980, dated 1982).

Tests used:
Enterococcus 89 = assay: Minimum inhibitory concentration, serial dilution in synthetic bacterial growth medium; format: cell-based; details: 35-37 °C, 16-20 hours
Procedure: (§1) The above fluorinated dipeptides are prepared in sterile concentrated aqueous solutions. Serial dilutions are made to give a range of concentrations of the test substances. Samples of the dilutions are mixed with an appropriate sterile synthetic bacterial growth medium in test tubes. The tubes are then inoculated with an appropriate test organism and incubated at 35°-37° C. for 16-20 hours. […]

Staph. aureus (Smith) = assay: In vivo mouse protection test (CD50, 7-day survival after intraperitoneal infection); set-up: species or system Charles River mice; details: peptide alone, subcutaneous, e.g. 1 and 5 hours post-infection, mice infected i.p. with 10-100 x LD50 Staph. aureus (Smith)
Procedure: Charles River mice weighing approximately 20 g. each, were infected intraperitoneally with 10-100 times the LD50 of the infecting organism. At predetermined intervals post-infection, e.g., 1 and 5 hours, mice were dosed subcutaneously with graded doses of the new dipeptide, antibiotic and a combination thereof. The number of mice surviving each treatment for 7 days post-infection was observed and the CD50 is calculated. The results using D-cycloserine as an example of the antiobiotic and representative fluorinated dipeptides are shown in Table II, using Staph. aureus (Smith) as the infecting organism. The values are listed in mg./kg.

Strep. faecalis 10541 = assay: Minimum inhibitory concentration, serial dilution in synthetic bacterial growth medium; format: cell-based; details: 35-37 °C, 16-20 hours, value in parentheses: a higher concentration did not always inhibit growth
Procedure: as §1

Bacillus subtilis 9466 = assay: as above; format: cell-based; details: 35-37 °C, 16-20 hours, value in parentheses: a higher concentration did not always inhibit growth
Procedure: as §1

Staph. aureus Smith = assay: as above; format: cell-based; details: 35-37 °C, 16-20 hours, value in parentheses: a higher concentration did not always inhibit growth
Procedure: as §1

Shigella sonnei 9290 = assay: as above; format: cell-based; details: 35-37 °C, 16-20 hours, value in parentheses: a higher concentration did not always inhibit growth
Procedure: as §1

Kleb. pneumonise 8045 = assay: as above; format: cell-based; details: 35-37 °C, 16-20 hours, value in parentheses: a higher concentration did not always inhibit growth
Procedure: as §1

E. coli Juhl = assay: as above; format: cell-based; details: 35-37 °C, 16-20 hours, value in parentheses: a higher concentration did not always inhibit growth
Procedure: as §1

Row | Compound | Minimum inhibitory concentration (Enterococcus 89) | CD50, Peptide (Staph. aureus (Smith)) [mg/kg] | Minimum inhibitory concentration (Strep. faecalis 10541) | Minimum inhibitory concentration (Bacillus subtilis 9466) | Minimum inhibitory concentration (Staph. aureus Smith) | Minimum inhibitory concentration (Shigella sonnei 9290) | Minimum inhibitory concentration (Kleb. pneumonise 8045) | Minimum inhibitory concentration (E. coli Juhl)
1 | C[C@H](NC(=O)[C@H](N)CF)C(=O)O [Example 1, β-fluoro-D-alanyl-L-alanine] | 200 | 9.4 | – | – | – | – | – | –
2 | N[C@H](CF)C(=O)N[C@@H](Cc1ccccc1)C(=O)O [Example 2, β-fluoro-D-alanyl-L-phenylalanine] | 25 | 75 to 150 | 0.78 | 3.1 | – | – | – | –
3 | N[C@H](CF)C(=O)N[C@@H](CCC(=O)O)C(=O)O [Example 3, βF-D-Ala-L-Glu] | 25 | – | 50 | 3.1 | 800 | – | – | –
4 | CC(C)C[C@H](NC(=O)[C@H](N)CF)C(=O)O [Example 4, F-D-Ala-L-Leu] | 25 | – | 3.1 | 6.2 | 800 | 800 | 800 | 800
5 | CC(C)(NC(=O)[C@H](N)CF)C(=O)O [Example 5, βF-D-Ala-Aibu] | 25 | – | 800 | – | 800 | – | 800 | –
6 | CC(C)[C@H](NC(=O)[C@H](N)CF)C(=O)O [Example 6, βF-D-Ala-L-Val] | 6.2 | – | – | – | 800 | – | 800 | 800
